Ends that are not written are not given here.
Experiments:
[1] = test system: Human prostate tumour cells (PPC-1); assay: Viable cell numbers of prostate tumour cells by MTT assay; format: cell-based; conditions: PPC-1 cells, FIG. 3; for numbers of viable prostate cells remaining in culture: cytotoxic alone at 10^-6, 10^-8 or 10^-10 M for 24 hours
From the text: ** OVCA 433 was established from ascites obtained from a patient with advanced serous ovarian adenocarcinoma (Tsa, S W et al., (1995) Exp. Cell Res. 218: 499-507) and HEY was derived from a xenograft of a peritoneal deposit of a cystoadeonocarcinoma of the ovary (Buick, R. N. et al., (1985) Cancer Research 45: 3668-3676). PPC-1 cells were originally derived from a human prostate tumour and were obtained from the laboratory of Dr. J. Nelson, University of Pittsburgh).
(§1) In vitro studies in ovarian cells: Human ovarian tumour cell lines (OVCA 433 and HEY) were maintained in culture media containing serum until sufficient numbers were available for experimentation. At this time the cells were transferred into media without serum. After 24 hours of serum starvation, cells were treated with either Compound (I) (1 μM) or paclitaxel (60 nM), or Compound (I)+paclitaxel. Following treatment for 24 hours, apoptosis was measured by a standard cell detection ELISA Plus kit (Boehringer Manheim). In vitro studies in prostate cells: Human prostate tumour cells (PPC-1) were maintained in culture medium containing serum until sufficient numbers were available for experimentation. After this time cells were transferred into media without serum. After 23 hours of serum starvation cells were treated with either endothelin 1 (10^−7M) or endothelin 1+Compound (I) at 10^−7M. An additional group of cells received vehicle control alone. One hour later cells were treated with paclitaxel or docetaxel at either 10^−6M, 10^−8M or 10^−10M for 24 hours. At the end of this 24 hour period, viable cell numbers were measured by a standard MTT assay (Mossman, J Inmunol Methods. (1983) 65, 55-63). In vivo studies: Athymic mice were given subcutaneous injections of 1.5×10^6 HEY cells into the flank. After 7 days, when established tumours had formed, mice were randomized to 4 treatment groups with 10 mice in each group. One group was treated with Compound (I) given by daily intraperitoneal injections (10 mg/kg/day) for 21 days. A second group received intravenous injections of paclitaxel (20 mg/kg) every 4 days for 3 doses. A third group received both paclitaxel and Compound (I) and a fourth group was given injections in the same way using vehicle alone. The experiments were replicated three times.

[2] = test system: Human ovarian tumour cell lines (OVCA 433 and HEY); assay: Apoptosis in serum-starved ovarian tumour cell lines, cell detection ELISA Plus kit; format: cell-based; conditions: HEY and OVCA 433 cells, 24 h serum starvation, 24 h treatment; Compound (I) 1 μM, paclitaxel 60 nM, alone or combined; FIG. 1
From the text: To evaluate the effect of Compound (I) in combination with an anti-mitotic cytotoxic agent (paclitaxel) on the growth of various carcinoma cells, we utilised two established human ovarian cell lines (HEY and OVCA 433**) which express functional endothelin A (ETa) receptors and secrete high levels of endothelin-1 (ET-1). ET-1 is an anti-apoptotic factor in many cell types, having this effect via ETa receptors. ** OVCA 433 was established from ascites obtained from a patient with advanced serous ovarian adenocarcinoma (Tsa, S W et al., (1995) Exp. Cell Res. 218: 499-507) and HEY was derived from a xenograft of a peritoneal deposit of a cystoadeonocarcinoma of the ovary (Buick, R. N. et al., (1985) Cancer Research 45: 3668-3676). PPC-1 cells were originally derived from a human prostate tumour and were obtained from the laboratory of Dr. J. Nelson, University of Pittsburgh). In vitro studies in ovarian cells: Human ovarian tumour cell lines (OVCA 433 and HEY) were maintained in culture media containing serum until sufficient numbers were available for experimentation. […] Following treatment for 24 hours, apoptosis was measured by a standard cell detection ELISA Plus kit (Boehringer Manheim). […] At the end of this 24 hour period, viable cell numbers were measured by a standard MTT assay (Mossman, J Inmunol Methods. (1983) 65, 55-63). […]

[3] = test system: HEY ovarian cell xenografts; assay: Growth of subcutaneous HEY ovarian carcinoma xenografts in athymic mice; format: in vivo; conditions: Compound (I) 10 mg/kg/day i.p. for 21 days, paclitaxel 20 mg/kg i.v. every 4 days for 3 doses, alone or both, FIG. 2
Protocol: as §1, with “After 7 days, when established tumours had formed, mice were randomized to 4 treatment groups with 10 mice in each group. One group was treated with Compound (I) given by daily intraperitoneal injections (10 mg/kg/day) for 21 days. A second group received intravenous injections of paclitaxel (20 mg/kg) every 4 days for 3 doses. A third group received both paclitaxel and Compound (I) and a fourth group was given injections in the same way using vehicle alone. The experiments were replicated three times.” left out

Compound	effect on the endothelin-1 reversal of cytotoxic-induced reduction in viable cell number ([1]; endothelin 1 10^-7 M + Compound (I) 10^-7 M, one hour before paclitaxel or docetaxel)	effect on apoptosis [2]	inhibition of HEY ovarian cell xenografts (tumour growth) [3]	numbers of viable prostate cells remaining in culture [1]	effect on the paclitaxel- or docetaxel-induced reduction in viable cell number ([1]; endothelin 1 10^-7 M given one hour before paclitaxel or docetaxel)
COc1nc(C)cnc1NS(=O)(=O)c1cccnc1-c1ccc(-c2nnco2)cc1 [Compound (I), N-(3-methoxy-5-methylpyrazin-2-yl)-2-(4-[1,3,4-oxadiazol-2-yl]phenyl)pyridine-3-sulphonamide]	blocked	no statistically significant effects	significant inhibition		
CC(=O)O[C@@]12CO[C@@H]1C[C@H](O)[C@@]1(C)C(=O)[C@H](O)C3=C(C)[C@@H](OC(=O)[C@H](O)[C@@H](NC(=O)OC(C)(C)C)c4ccccc4)C[C@@](O)([C@@H](OC(=O)c4ccccc4)[C@H]21)C3(C)C [docetaxel, Docetaxel]				significantly reduced	
CC(=O)O[C@H]1C(=O)[C@@]2(C)[C@H]([C@H](OC(=O)c3ccccc3)[C@]3(O)C[C@H](OC(=O)[C@H](O)[C@@H](NC(=O)c4ccccc4)c4ccccc4)C(C)=C1C3(C)C)[C@]1(OC(C)=O)CO[C@@H]1C[C@@H]2O [paclitaxel, Paclitaxel]		no statistically significant effects	degree of inhibition was similar	significantly reduced	
endothelin-1 (CSCSSLMDKECVYFCHLDIIW; ends and bridges not checked; cysteine pairing not given here; UniProt P05305 53-73, looked up) [endogenous 21 amino acid peptide, anti-apoptotic factor acting via ETa receptors]					reversed

Reference: US20100035896A1, “Combination of N-(3-methoxy-5-methylpyrazin-2-yl)-2-(4-[1,3,4-oxadiazol-2-yl]phenyl)pyridine-3-sulphonamide and an anti-mitotic cytotoxic agent” (ASTRAZENECA AB, priority 2004, published 2010)
